Results from patent US11000033B2, “Ketone or oxime compound, and herbicide” (NISSAN CHEMICAL CORPORATION, priority 2014, dated 2021).

Tests used:
Assay type in all cases: in vivo
[1] = system: soybean; experiment: Test Example 5: effect on crop by foliage application, plastic box (symbol d); conditions: 320 g/ha, 3 weeks after application
Outline: (§1)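 In a plastic box 7 cm deep filled with sterilized diluvial soil, seeds of crops and weeds such as Digitaria ciliaris, Avena fatua and Amaranthus retroflexus are sown in spots and covered with about 1.5 cm of soil before greenhouse growth at 25–30° C.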

[2] = system: Chenopodium album; experiment: Test Example 4: herbicidal effect by soil treatment (symbol O)
Outline: (§2)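 Seeds were sown in sterilized diluvial soil, covered with about 1.5 cm of soil, and the soil surface was sprayed with a water-diluted emulsion of the compound at a predetermined rate. Plants grew in a greenhouse at 25° C. to 30° C.; effects were scored visually 3 weeks after application.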

[3] = system: Echinochloa oryzacola Vasing.; experiment: Test Example 2: herbicidal activity, application during weed generation in submerged conditions (symbol A); conditions: Table 23; application herbicide amount 320 g/ha; grade 0-5 by criteria of Test Example 1
Outline: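 Submerged alluvial soil (4 cm) sown with mixed seed; greenhouse 25–30° C. 1–2 leaf: diluted emulsion onto water surface, preset dose. Visual score, 3 wk.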

[4] = system: Abutilon theophrasti; experiment: Test Example 5: herbicidal effect by foliage application, plastic box (symbol M); conditions: 320 g/ha, 3 weeks after application
Outline: (§3)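 Leaf-applied emulsion, water-diluted to a preset herbicide dose, on two-week-old seedlings raised in a 25° C. to 30° C. greenhouse; injury rated at 3 weeks using earlier criteria.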

[5] = system: Apera spica-venti; experiment: Test Example 5: herbicidal effect by foliage application, plastic box (symbol L); conditions: 320 g/ha, 3 weeks after application
Outline: as §3

[6] = system: Leptochloa chinensis; experiment: Test Example 3: herbicidal effect by foliage application, Wagner pot (symbol D); conditions: application herbicide amount 320 g/ha
Outline: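 Steps: fill pot with alluvial soil; add water to 0.1–0.5 cm depth; sow weed and rice seed; grow 14 days at 25–30 °C; spray diluted emulsion over the leaves; rate effect after 3 weeks.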

[7] = system: Chenopodium album; experiment: Test Example 5: herbicidal effect by foliage application, plastic box (symbol O); conditions: 320 g/ha, 3 weeks after application
Outline: as §3

[8] = system: beet; experiment: Test Example 5: effect on crop by foliage application, plastic box (symbol f); conditions: 320 g/ha, 3 weeks after application
Outline: as §1

[9] = system: Digitaria ciliaris; experiment: Test Example 4: herbicidal effect by soil treatment (symbol F)
Outline: as §2

[10] = system: Amaranthus retroflexus; experiment: Test Example 5: herbicidal effect by foliage application, plastic box (symbol N); conditions: 320 g/ha, 3 weeks after application
Outline: as §3

[11] = system: Setaria viridis; experiment: Test Example 4: herbicidal effect by soil treatment (symbol G)
Outline: as §2

[12] = system: Galium spurium; experiment: Test Example 5: herbicidal effect by foliage application, plastic box (symbol Q); conditions: 320 g/ha, 3 weeks after application
Outline: as §3

[13] = system: rapeseed; experiment: Test Example 5: effect on crop by foliage application, plastic box (symbol g); conditions: 320 g/ha, 3 weeks after application
Outline: as §1

[14] = system: corn; experiment: Test Example 5: effect on crop by foliage application, plastic box (symbol c); conditions: 320 g/ha, 3 weeks after application
Outline: as §1

[15] = system: Monochoria vaginalis; experiment: Test Example 1: herbicidal activity, application before weed generation in submerged conditions (symbol C); conditions: application herbicide amount 320 g/ha
Outline: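 Pre-emergence, paddy conditions: emulsifiable formulation diluted in water, dosed onto floodwater (4 cm depth) on sowing day. Alluvial soil; weeds sown mixed; rice transplanted at 2.5-leaf stage. Greenhouse 25–30 °C, 3 wk. Score 0–5 (5 = ≥90% kill, 0 = ≤5%).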

[16] = application herbicide amount 320 g/ha

Compound	d: soybean, effect on crop grade [1]	O: Chenopodium album, herbicidal effect grade [2, 16]	Herbicidal effect grade, A: Echinochloa oryzacola Vasing. [3]	M: Abutilon theophrasti, herbicidal effect grade [4]	L: Apera spica-venti, herbicidal effect grade [5]	herbicidal effect on D (Leptochloa chinensis), grade 0-5 [6]	O: Chenopodium album, herbicidal effect grade [7]	f: beet, effect on crop grade [8]	F: Digitaria ciliaris, herbicidal effect grade [9, 16]	N: Amaranthus retroflexus, herbicidal effect grade [10]	G: Setaria viridis, herbicidal effect grade [11, 16]	Q: Galium spurium, herbicidal effect grade [12]	g: rapeseed, effect on crop grade [13]	c: corn, effect on crop grade [14]	Herbicidal effect grade, C: Monochoria vaginalis [15]	further results
CON=C(C)CC1CC(O)=C(c2c(C)cc(-c3ccc(OC)cc3)cc2C)C1=O (mixture of isomers) [6-017]	0 (Herbicidal ratio of 5% or lower (almost no effect))	0 (Herbicidal ratio of 5% or lower (almost no effect))	4 (Herbicidal ratio of 70% or higher and lower than 90%)	0 (Herbicidal ratio of 5% or lower (almost no effect))	5 (Herbicidal ratio of 90% or more (almost completely withered))	5 (Herbicidal ratio of 90% or more (almost completely withered))	4 (Herbicidal ratio of 70% or higher and lower than 90%)	0 (Herbicidal ratio of 5% or lower (almost no effect))	5 (Herbicidal ratio of 90% or more (almost completely withered))	0 (Herbicidal ratio of 5% or lower (almost no effect))	5 (Herbicidal ratio of 90% or more (almost completely withered))	0 (Herbicidal ratio of 5% or lower (almost no effect))	3 (Herbicidal ratio of 40% or higher and lower than 70%)	5 (Herbicidal ratio of 90% or more (almost completely withered))	0 (Herbicidal ratio of 5% or lower (almost no effect))	–
COC(=O)C(C(=O)C1CC1)C1CC(O)=C(c2c(C)cc(C)cc2C)C1=O (stereo not drawn) [2-014]	0 (Herbicidal ratio of 5% or lower (almost no effect))	0 (Herbicidal ratio of 5% or lower (almost no effect))	4 (Herbicidal ratio of 70% or higher and lower than 90%)	3 (Herbicidal ratio of 40% or higher and lower than 70%)	4 (Herbicidal ratio of 70% or higher and lower than 90%)	4 (Herbicidal ratio of 70% or higher and lower than 90%)	0 (Herbicidal ratio of 5% or lower (almost no effect))	0 (Herbicidal ratio of 5% or lower (almost no effect))	5 (Herbicidal ratio of 90% or more (almost completely withered))	0 (Herbicidal ratio of 5% or lower (almost no effect))	5 (Herbicidal ratio of 90% or more (almost completely withered))	0 (Herbicidal ratio of 5% or lower (almost no effect))	4 (Herbicidal ratio of 70% or higher and lower than 90%)	3 (Herbicidal ratio of 40% or higher and lower than 70%)	1 (Herbicidal ratio of 5% or higher and lower than 20%)	–
CON=C(C)CC1CC(OS(=O)(=O)CC[Si](C)(C)C)=C(c2c(C)cc(C)cc2C)C1=O (stereo not drawn) [1-144]	–	–	5 (Herbicidal ratio of 90% or more (almost completely withered))	–	–	5 (Herbicidal ratio of 90% or more (almost completely withered))	–	–	–	–	–	–	–	–	3 (Herbicidal ratio of 40% or higher and lower than 70%)	d: soybean, effect on crop (criteria 0-5) [1]: 3 (Herbicidal ratio of 40% or higher and lower than 70%); O: Chenopodium album, herbicidal effect grade ([2]; 320 g/ha): 0 (Herbicidal ratio of 5% or lower (almost no effect)); M: Abutilon theophrasti, herbicidal effect (criteria 0-5) [4]: 4 (Herbicidal ratio of 70% or higher and lower than 90%); L: Apera spica-venti, herbicidal effect (criteria 0-5) [5]: 5 (Herbicidal ratio of 90% or more (almost completely withered)); O: Chenopodium album, herbicidal effect (criteria 0-5) [7]: 0 (Herbicidal ratio of 5% or lower (almost no effect)); f: beet, effect on crop (criteria 0-5) [8]: 2 (Herbicidal ratio of 20% or higher and lower than 40%); F: Digitaria ciliaris, herbicidal effect grade ([9]; 320 g/ha): 5 (Herbicidal ratio of 90% or more (almost completely withered)); N: Amaranthus retroflexus, herbicidal effect (criteria 0-5) [10]: 1 (Herbicidal ratio of 5% or higher and lower than 20%); G: Setaria viridis, herbicidal effect grade ([11]; 320 g/ha): 5 (Herbicidal ratio of 90% or more (almost completely withered)); Q: Galium spurium, herbicidal effect (criteria 0-5) [12]: 2 (Herbicidal ratio of 20% or higher and lower than 40%); g: rapeseed, effect on crop (criteria 0-5) [13]: 4 (Herbicidal ratio of 70% or higher and lower than 90%); c: corn, effect on crop (criteria 0-5) [14]: 5 (Herbicidal ratio of 90% or more (almost completely withered))
CCOC(=O)C(C(=O)c1ccccn1)C1CC(O)=C(c2c(C)cc(C)cc2C)C1=O (stereo not drawn) [2-013]	0 (Herbicidal ratio of 5% or lower (almost no effect))	0 (Herbicidal ratio of 5% or lower (almost no effect))	0 (Herbicidal ratio of 5% or lower (almost no effect))	0 (Herbicidal ratio of 5% or lower (almost no effect))	4 (Herbicidal ratio of 70% or higher and lower than 90%)	0 (Herbicidal ratio of 5% or lower (almost no effect))	1 (Herbicidal ratio of 5% or higher and lower than 20%)	0 (Herbicidal ratio of 5% or lower (almost no effect))	1 (Herbicidal ratio of 5% or higher and lower than 20%)	0 (Herbicidal ratio of 5% or lower (almost no effect))	1 (Herbicidal ratio of 5% or higher and lower than 20%)	1 (Herbicidal ratio of 5% or higher and lower than 20%)	4 (Herbicidal ratio of 70% or higher and lower than 90%)	4 (Herbicidal ratio of 70% or higher and lower than 90%)	0 (Herbicidal ratio of 5% or lower (almost no effect))	–
CON=C(C)CC1CC(O)=C(c2c(C)cc(C)cc2Br)C1=O (stereo not drawn) [6-038]	4 (Herbicidal ratio of 70% or higher and lower than 90%)	0 (Herbicidal ratio of 5% or lower (almost no effect))	4 (Herbicidal ratio of 70% or higher and lower than 90%)	5 (Herbicidal ratio of 90% or more (almost completely withered))	5 (Herbicidal ratio of 90% or more (almost completely withered))	5 (Herbicidal ratio of 90% or more (almost completely withered))	3 (Herbicidal ratio of 40% or higher and lower than 70%)	0 (Herbicidal ratio of 5% or lower (almost no effect))	5 (Herbicidal ratio of 90% or more (almost completely withered))	5 (Herbicidal ratio of 90% or more (almost completely withered))	4 (Herbicidal ratio of 70% or higher and lower than 90%)	0 (Herbicidal ratio of 5% or lower (almost no effect))	5 (Herbicidal ratio of 90% or more (almost completely withered))	5 (Herbicidal ratio of 90% or more (almost completely withered))	3 (Herbicidal ratio of 40% or higher and lower than 70%)	–
